Patent US20250268903A1, “RXFP1 AGONISTS” (BRISTOL-MYERS SQUIBB COMPANY, priority 2021, published 2025)

Target: T1, human RXFP1 (Homo sapiens, UniProt Q9HBX9)
T1 construct: expressed in transfected cells
T1 sequence (Q9HBX9 1-757): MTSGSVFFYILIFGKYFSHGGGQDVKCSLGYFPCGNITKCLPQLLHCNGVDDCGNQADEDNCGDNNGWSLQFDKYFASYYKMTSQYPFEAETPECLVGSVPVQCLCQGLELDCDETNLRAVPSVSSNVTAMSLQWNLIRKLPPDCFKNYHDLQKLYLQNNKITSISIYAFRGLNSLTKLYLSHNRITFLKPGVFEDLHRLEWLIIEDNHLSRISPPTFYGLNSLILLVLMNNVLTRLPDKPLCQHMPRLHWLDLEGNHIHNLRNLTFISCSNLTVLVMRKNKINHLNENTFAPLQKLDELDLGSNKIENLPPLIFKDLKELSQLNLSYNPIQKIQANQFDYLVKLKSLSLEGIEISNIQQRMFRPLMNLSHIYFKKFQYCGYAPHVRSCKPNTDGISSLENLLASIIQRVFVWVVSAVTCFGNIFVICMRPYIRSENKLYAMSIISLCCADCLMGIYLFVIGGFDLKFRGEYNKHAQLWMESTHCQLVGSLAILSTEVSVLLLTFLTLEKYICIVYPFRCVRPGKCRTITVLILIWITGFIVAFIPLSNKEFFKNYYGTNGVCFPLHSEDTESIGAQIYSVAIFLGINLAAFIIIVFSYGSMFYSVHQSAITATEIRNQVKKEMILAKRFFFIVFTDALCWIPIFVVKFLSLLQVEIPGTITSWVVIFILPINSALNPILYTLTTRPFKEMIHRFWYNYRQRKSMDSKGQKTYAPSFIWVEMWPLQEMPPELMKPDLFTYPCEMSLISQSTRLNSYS
Assay: hRXFP1 HEK293 cAMP assay (HTRF)
Type: cell-based
Conditions: HEK293 cells stably expressing human RXFP1, 30 min at room temperature
In short: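 Potency and activity come from a four-parameter logistic fit of cAMP against compound concentration, tested from 0.010 nM up to 50 μM. The assay uses HEK293 cells stably expressing human RXFP1, incubated 30 min at ambient temperature with phosphodiesterase inhibitor IBMX present.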

Compound | EC50 [nM]
COc1ccc(S(=O)(=O)N2CCNCC2)cc1C(=O)NC1C2CCC(/C2=C/C(F)(F)F)[C@@H]1C(=O)Nc1ccc(F)c(C(F)(F)F)c1 (stereo partly drawn) [Example 203, (2S,3R,7Z)-N-[4-fluoro-3-(trifluoromethyl)phe-nyl]-3-[2-methoxy-5-(piperazine-1-sulfonyl)benzamido]-7-(2,2,2-trifluoroethylidene)bi-cyclo[2.2.1]heptane-2-carboxamide] | 858
COc1ccc(CCCNCC(O)(C(F)(F)F)C(F)(F)F)cc1C(=O)N[C@H]1[C@@H](C(=O)Nc2ccc(F)c(C(F)(F)F)c2)[C@H]2CC[C@@H]1/C2=C\C(F)(F)F [Example 117, (1R,2S,3R,4R,Z)—N-(4-fluoro-3-(trifluoromethyl)phenyl)-3-(2-methoxy-5-(3-((3,3,3-trifluoro-2-hydroxy-2-(trifluoromethyl)propyl)amino)propyl)benzamido)-7-(2,2,2-trifluoroethylidene) bicyclo[2.2.1]heptane-2-carboxamide] | 1240
COc1ccc(C(=O)N2CC(C)(C)C2)cc1C(=O)N[C@H]1[C@@H](C(=O)Nc2ccc(F)c(C(F)(F)F)c2)[C@H]2CC[C@@H]1/C2=C\C1CC1 [Example 237] | 41.3
COc1ccc(CCO)cc1C(=O)NC1C2CCC(/C2=C/C(F)(F)F)[C@@H]1C(=O)Nc1ccc(F)c(C(F)(F)F)c1 (some centres unmarked) [Example 55] | 781
COc1ccc(COCCC(=O)O)cc1C(=O)N[C@@H]1C2CCC(C2=C(C)C)[C@@H]1C(=O)Nc1ccc(F)c(C(F)(F)F)c1 (stereo partly drawn) [Example 30, 3-[(3-{[(2R,3S)-3-{[4-fluoro-3-(trifluoromethyl)phe-nyl]carbamoyl}-7-(propan-2-ylidene)bicyclo[2.2.1]heptan-2-yl]carbamoyl}-4-methoxyphenyl)meth-oxy]propanoic acid] | 710
COc1ccc(COC2=NOC3COCC23)cc1C(=O)N[C@H]1[C@@H](C(=O)Nc2ccc(F)c(C(F)(F)F)c2)[C@H]2CC[C@@H]1/C2=C\C1CC1 (stereo partly drawn) [Example 300, (1R,2S,3R,4R,7Z)-3-[5-({3aH,4H,6H,6aH-furo[3,4-d][1,2]oxazol-3-yloxy}methyl)-2-methoxybenzamido]-7-(cyclopropylmethylidene)-N-[4-fluoro-3-(trifluoromethyl)phenyl]bicyclo[2.2.1] heptane-2-carboxamide] | 206
COc1cc(COC2(CO)CC2)ccc1C(=O)N[C@H]1[C@@H](C(=O)Nc2ccc(F)c(C(F)(F)F)c2)[C@H]2CC[C@@H]1/C2=C\C1CC1 [Example 14, (1R,2S,3R,4R,Z)-7-(cyclopropylmethylene)-N-(4-fluoro-3-(trifluoromethyl)phenyl)-3-(4-((1-(hydroxymethyl)cyclopropoxy)methyl)-2-methoxybenzamido) bicyclo[2.2.1]heptane-2-carboxamide] | 13
COc1c(F)cc(C(=O)NCC2(S(C)(=O)=O)CC2)cc1C(=O)N[C@H]1[C@@H](C(=O)Nc2ccc(F)c(C(F)(F)F)c2)[C@H]2CC[C@@H]1/C2=C\C1CCCC1 [Example 367, N3-[(1R,2R,3S,4R,7Z)-7-(cyclopentyl-methylidene)-3-{[4-fluoro-3-(trifluoromethyl)phenyl]carbamoyl}bicyclo[2.2.1]heptan-2-yl]-5-fluoro-N1-[(1-methanesulfonyl-cyclopropyl)methyl]-4-methoxybenzene-1,3-dicarboxamide] | 2.3
COc1ccc(CCc2ccc(OC)c(C(=O)NC3C4CCC(/C4=C/C(F)(F)F)[C@@H]3C(=O)Nc3ccc(F)c(C(F)(F)F)c3)c2)cc1 (some centres unmarked) [Example 188, (7Z)-N-[4-fluoro-3-(trifluoromethyl)phe-nyl]-3-{2-methoxy-5-[2-(4-methoxyphenyl)ethyl]benzamido}-7-(2,2,2-trifluoroethylidene)bi-cyclo[2.2.1]heptane-2-carboxamide] | 56
COc1ccc(/C(=C/CO)C(F)(F)F)cc1C(=O)N[C@H]1[C@@H](C(=O)Nc2ccc(F)c(C(F)(F)F)c2)[C@H]2CC[C@@H]1/C2=C\C1CC1 [Example 282, (1R,2S,3R,4R,Z)-7-(cyclopropylmethylene)-N-(4-fluoro-3-(trifluoromethyl)phenyl)-3-(2-methoxy-5-((Z)-1,1,1-trifluoro-4-hydroxybut-2-en-2-yl)benzamido) bicyclo[2.2.1]heptane-2-carboxamide] | 281
O=C(N[C@@H]1C2CCC(/C2=C/C(F)(F)F)[C@@H]1C(=O)Nc1ccc(F)c(C(F)(F)F)c1)c1cc(CCCO)ccc1OCCO (stereo partly drawn) [Example 107, (2S,3R,7Z)-N-[4-fluoro-3-(trifluoromethyl)phe-nyl]-3-[2-(2-hydroxyethoxy)-5-(3-hydroxypropyl)benz-amido]-7-(2,2,2-trifluoroethylidene)bi-cyclo[2.2.1]heptane-2-carboxamide] | 815
COc1ccc(C#CCOC(=O)Nc2ccccc2)cc1C(=O)N[C@@H]1C2CCC(/C2=C/C(F)(F)F)[C@@H]1C(=O)Nc1ccc(F)c(C(F)(F)F)c1 (stereo partly drawn) [Example 69, 3-(3-{[(2R,3S,7Z)-3-{[4-fluoro-3-(trifluoromethyl)phe-nyl]carbamoyl}-7-(2,2,2-trifluoroethylidene)bi-cyclo[2.2.1]heptan-2-yl]carbamoyl}-4-methoxyphenyl)prop-2-yn-1-yl N-phenylcarbamate] | 95
COc1ccc(S(=O)(=O)N2CC3CCC(C2)O3)cc1C(=O)N[C@H]1[C@@H](C(=O)Nc2ccc(F)c(C(F)(F)F)c2)[C@H]2CC[C@@H]1/C2=C\C1CC1 [Example 221, (1R,2S,3R,4R,7Z)-7-(cyclopropylmethyl-idene)-N-[4-fluoro-3-(trifluoromethyl)phenyl]-3-(2-methoxy-5-{8-oxa-3-azabicyclo[3.2.1]octane-3-sulfonyl}benzamido) bicyclo[2.2.1]heptane-2-carboxamide] | 44.9
COc1ccc(C2CC2C(=O)N2CCC(O)CC2)cc1C(=O)N[C@H]1[C@@H](C(=O)Nc2ccc(F)c(C(F)(F)F)c2)[C@H]2CC[C@@H]1/C2=C\C(F)(F)F (single isomer, unassigned) [Example 322] | 331
COc1cc(F)c(O[C@H]2CC[C@H](C(=O)O)CC2)cc1C(=O)N[C@@H]1C2CCC(/C2=C/C2CC2)[C@@H]1C(=O)Nc1ccc(F)c(C(F)(F)F)c1 (stereo partly drawn) [Example 376, (1R,4r)-4-(5-(((1R,2R,3S,4R,Z)-7-(cyclopropyl-methylene)-3-((4-fluoro-3-(trifluoromethyl)phenyl)carbamoyl)bicyclo[2.2.1]heptan-2-yl)carbamoyl)-2-fluoro-4-methoxyphenoxy) cyclohexane-1-carboxylic acid] | 120
COc1ccc(C2CCCCC2O)cc1C(=O)N[C@@H]1C2CCC(/C2=C/C(F)(F)F)[C@@H]1C(=O)Nc1ccc(F)c(C(F)(F)F)c1 (single isomer, unassigned) [Example 58] | 1200
COc1ccc(S(=O)(=O)N2CCN(C(=O)OC(C)(C)C)CC2CCO)cc1C(=O)N[C@H]1[C@@H](C(=O)Nc2ccc(F)c(C(F)(F)F)c2)[C@H]2CC[C@@H]1/C2=C\C(F)(F)F (stereo partly drawn) [Example 215, tert-butyl 4-(3-{[(1R,2R,3S,4R,7Z)-3-{[4-fluoro-3-(trifluoromethyl)phenyl]carbamoyl}-7-(2.2,2-trifluoroethylidene)bicyclo[2.2.1]heptan-2-yl]carbamoyl}-4-methoxy-benzenesulfonyl)-3-(2-hydroxyethyl) piperazine-1-carboxylate] | 761
